How the values were obtained:
[1] = target: T1, binding between ALS-related mutant SOD1 (Flag-SOD1 G93A) and Derlin-1 (Derlin-1-HA) (Homo sapiens, UniProt P00441+Q9BUN8, G94A); test: Cell-based co-immunoprecipitation assay of mutant SOD1 (G93A)-Derlin-1 binding; design: key to Activity value (score): a compound exhibiting no inhibitory activity is set at 0; a compound exhibiting inhibitory activity is set at 1; a compound exhibiting significant inhibitory activity is set at 2; a compound having higher inhibitory activity than the compound of Example 1 is set at 3
T1 construct: expressed in transfected cells; host or cells: HEK293A
T1 sequence (P00441 whole entry G94A, species assumed, one chain of several): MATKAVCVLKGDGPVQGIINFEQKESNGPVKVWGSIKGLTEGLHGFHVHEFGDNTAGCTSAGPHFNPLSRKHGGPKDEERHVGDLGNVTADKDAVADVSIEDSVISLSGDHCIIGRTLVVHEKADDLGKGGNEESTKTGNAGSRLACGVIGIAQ
Experimental: As cells, human embryonic kidney-derived, Human Embryonic Kidney 293A (HEK293A) cells were used. The cells were cultured in High Glucose Dulbecco's modified Eagle's medium (DMEM: 4.5 mg/ml glucose, Sigma) supplemented with complement-inactivated 10% fetal bovine serum (FBS, Vitromex) and 100 units/mL Penicillin G (Meiji), which was placed in an incubator set at conditions of 37° C. and 5% CO2.
Transfection into the HEK293A cells was carried out using PEI-Max (Polyscience) at a ratio of 3 μL of PEI-Max to 1 μg of plasmid. DMEM was mixed with PEI-Max, and the mixture was then left at rest for 5 minutes. Thereafter, the reaction mixture was added to the plasmid DNA dissolved in DMEM, and the thus obtained mixture was further left at rest for 15 minutes. After seeding, the culture was carried out for 12 to 24 hours, and the resultant was then added to a culture medium of cells, in which the medium had been exchanged with DMEM supplemented only with 10% FBS.
pcDNA3.0-Derlin-1-HA, pcDNA3.0-Flag-SOD1 G93A, and 123 types of other mutants.
In the lysis of HEK293A cells for use in a co-immunoprecipitation experiment, an IP lysis buffer (20 mM Tris-HCl (pH 7.5), 150 mM NaCl, 10 mM EDTA (pH 8.0), 1% Triton-X 100, 5 μg/mL leupeptin, and 1 mM phenylmethylsulfonyl fluoride) was used.
After the transfection on a 24-well plate, the cells were cultured for 12 hours or 24 hours, and the obtained cell culture was exchanged with 200 μL of medium. Thereafter, 1% DMSO or various types of compounds having each different concentration were added into the culture. Thirty-six hours or twenty-four hours later, the cells were incubated in the IP lysis buffer (300 μL/well) at 4° C. for 25 minutes, so that the cells were lysed. The cell lysate was centrifuged at 4° C. at 15000 rpm for 10 minutes, and a supernatant was then recovered. To this supernatant, Anti-Flag M2 affinity gel was added in a liquid amount of 20 μL, and they were allowed to react with each other by subjecting the obtained mixture to inversion mixing at 4° C. for 25 minutes. After completion of the reaction, a supernatant was removed, and the residue was washed twice with High salt wash buffer (1% Triton X 100, 500 mM NaCl, 20 mM Tris-HCl (pH 7.5), and 5 mM EGTA), and was then washed once with Low salt wash buffer (150 mM NaCl, 20 mM Tris-HCl (pH 7.5), and 5 mM EGTA). Finally, 50 μL of a 2×SDS sample buffer was added to the resultant, and the obtained mixture was then boiled at 98° C. for 3 minutes to obtain an SDS-PAGE sample. Regarding the lysate, a 2×SDS sample buffer was added in an amount equal to the supernatant, and the obtained mixture was then boiled at 98° C. for 3 minutes to obtain an SDS-PAGE sample.
After completion of SDS-PAGE, a protein was transferred from the gel into a polyvinylidene difluoride membrane (PVDF) ([…], Pall), and was then blocked with TBS-T (150 mM NaCl, 50 mM Tris-HCl (pH 8.0), and 0.05% Tween 20) supplemented with 5% skimmed milk at room temperature for 2 hours or more. Thereafter, a primary antibody diluted with TBS-T supplemented with 5% bovine serum albumin and 0.1% NaN3 was allowed to bind to each molecule on the PVDF membrane at 4° C. for 12 hours or more. After completion of the reaction, a secondary antibody (HRP-linked 2nd antibody) diluted with TBS-T supplemented with 5% skimmed milk was allowed to bind to the primary antibody at room temperature for 1 hour. Thereafter, the resultant was washed with TBS-T for 15 minutes, 3 or more times, and detection was then carried out using an enhanced chemiluminescence (ECL) system.
With regard to the compounds of the present invention (Example Compound 1 to Example Compound 47), whether or not the present compound can inhibit the binding between ALS-related mutant SOD1 and Derlin-1 in a cell by being added into a cell culture solution was examined according to a co-immunoprecipitation experiment. […]

[2] = target: T2, complex formation by Derlin-1 (Homo sapiens, UniProt Q9BUN8); test: Inhibition of complex formation by Derlin-1; type: cell-based; details: under conditions for inhibiting the binding between mutant SOD1 and Derlin-1
T2 sequence (Q9BUN8 1-251): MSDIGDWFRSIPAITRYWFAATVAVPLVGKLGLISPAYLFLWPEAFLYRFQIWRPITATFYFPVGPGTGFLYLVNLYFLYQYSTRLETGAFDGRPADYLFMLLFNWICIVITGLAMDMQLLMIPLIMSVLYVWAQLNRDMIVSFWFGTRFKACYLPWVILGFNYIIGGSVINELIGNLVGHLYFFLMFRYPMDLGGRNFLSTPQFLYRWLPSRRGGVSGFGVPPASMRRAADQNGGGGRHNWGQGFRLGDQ
Description: In the above-described SOD1-Derlin-1-binding inhibition experiment, SOD1 G93A that is a representative mutant SOD1 associated with the onset of the pathologic conditions of ALS was used. According to previous studies, however, it has become clear that 122 types of ALS-related mutant SOD1s bind to Derlin-1 (Fujisawa et al., Ann Neurol 72, 739-749, (2012)).

C=CCN(C(=O)c1sc2nc(-c3cccnc3)ccc2c1N)c1ccccc1 [Example 1, N-allyl-3-amino-N-phenyl-6-(3-pyridinyl)thieno[2,3-b]pyridine-2-carboxamide]
binding between mutant SOD1 and Derlin-1 (co-precipitated Derlin-1, IB:HA band) ([1]; 5 μM, 10 μM and 20 μM added to HEK293A cell culture, FIG. 1): the binding between mutant SOD1 and Derlin-1 was inhibited
Activity value (score) ([1]; assay concentration 20 μM, HEK293A cells overexpressing Flag-SOD1 G93A and Derlin-1-HA): 2
inhibitory activity on complex formation by Derlin-1 [2]: did not exhibit inhibitory activity

— patent publication US10689394B2, “Thieno[2,3-b]pyridine derivative, quinoline derivative, and use thereof” (The University of Tokyo, priority 2016, dated 2020)
